The values that follow come from patent US8557800B2, “Sphingosine kinase inhibitors” (Apogee Biotechnology Corporation, priority 2005, dated 2013).

Each structure is given as a SMILES string.

The test system of assay [1] is MCF-7 human breast adenocarcinoma cells. Nature of the assay: Cytotoxicity, SRB binding assay. The format is cell-based. Conditions: MCF7, inhibition of cell proliferation, 48 h, read-out: MCF-7 IC50. On the procedure:
To further assess the biological efficacies of the Compounds in intact cells, each Compound was evaluated for cytotoxicity using human cancer cell lines. These experiments followed methods that have been extensively used. Cell lines tested included MCF-7 human breast adenocarcinoma cells and MCF-10A non-transformed human breast epithelial cells. The indicated cell lines were treated with varying doses of the test Compound for 48 h. Cell survival was then determined using the SRB binding assay (Skehan et al., 1990, J Natl Cancer Inst 82: 1107), and the concentration of compound that inhibited proliferation by 50% (the IC50) was calculated. Values (in μM) represent the mean±sd for replicate trials.
A general note: In SRB staining, fixed cells bind dye roughly in proportion to their protein.

Assay [2] relates to recombinant human SK. Nature of the assay: Inhibition of recombinant human SK, LC/MS/MS assay. It counts as biochemical. Conditions: 6 μg/ml compound. How it is done: SK activity is measured by incubation of the recombinant SK with [^3H]sphingosine and 1 mM ATP under defined conditions, followed by extraction of the assay mixture with chloroform:methanol under basic conditions. […] Radioactivity in aliquots of the aqueous phase is then quantified as a measure of [^3H]S1P formation.
In an alternate assay procedure, the recombinant human SK was incubated with unlabeled sphingosine and ATP as described above. After 30 minutes, the reactions were terminated by the addition of acetonitrile to directly extract the newly synthesized S1P. The amount of S1P in the samples is then quantified as follows. C17 base D-erythro-sphingosine and C17 SIP are used as internal standards for sphingosine and S1P, respectively. […] The lipids are then fractionation by High-Performance Liquid Chromatography using a C8-reverse phase column eluted with 1 mM methanolic ammonium formate/2 mM aqueous ammonium formate. […] Calibration curves are generated by plotting the peak area ratios of the synthetic standards for each sphingolipid, and used to determine the normalized amounts of sphingosine and S1P in the samples.
Each Compound of this invention was tested for its ability to inhibit recombinant SK using the LC/MS/MS assay described above.

Consider `O=C(/C=C/c1ccc(Cl)nc1)C12CC3CC(C1)CC(c1ccc(Cl)cc1)(C3)C2` [Compound 134, 1-[3-(4-Chloro-phenyl)-adamantan-1-yl]-3-(6-chloro-pyridin-3-yl)-propenone], for which the IC50 (as a rule, the concentration that gives 50% inhibition) in assay [1] is 16 µM. In addition, the “Recombinant SK (% inhibition)” value in assay [2] came out at 52%.
For `CS(=O)(=O)c1ccc(CNC(=O)C23CC4CC(C2)CC(c2ccc(Cl)cc2)(C4)C3)cc1` [Compound 30, 3-(4-Chloro-phenyl)-adamantane-1-carboxylic acid 4-methanesulfonyl-benzylamide] the same measures were 14 µM and 1%.
For `O=C(NCc1ccc(F)cc1Cl)C12CC3CC(C1)CC(c1ccc(Cl)cc1)(C3)C2` [Compound 25, 3-(4-Chloro-phenyl)-adamantane-1-carboxylic acid 2-chloro-4-fluoro-benzylamide] the same measures were 87 µM and 47%.
As to `CSc1ccc(CNC(=O)C23CC4CC(C2)CC(c2ccc(Cl)cc2)(C4)C3)cc1` [Compound 14, 3-(4-Chloro-phenyl)-adamantane-1-carboxylic acid 4-methylsulfanyl-benzylamide], in assay [1], the IC50 amounted to 36 µM. The “Recombinant SK (% inhibition)” value in assay [2] was 19%.
For the compound `O=C(NCc1ccncc1)C12CC3CC(CC(C3)C1)C2` [Compound 60, Adamantane-1-carboxylic acid (pyridin-4-ylmethyl)-amide], the IC50 in assay [1] stood at 7 µM. In assay [2], the “Recombinant SK (% inhibition)” value came out at 0%.
For `CC(Nc1ccccc1)C12CC3CC(CC(c4ccccc4)(C3)C1)C2` (stereo not shown) [Compound 93, Phenyl-[1-(3-phenyl-adamantan-1-yl)-ethyl]-amine] the same measures were 15 µM and 70%.
Taken in the same sequence, the figures for `O=C(NCCCN1CCCC1)C12CC3CC(C1)CC(c1ccc(Cl)cc1)(C3)C2` [Compound 54, 3-(4-Chloro-phenyl)-adamantane-1-carboxylic acid (3-pyrrolidin-1-yl-propyl)-amide] were 11 µM and 95%.
Consider `O=C(NCCc1ccc(O)c(O)c1)C12CC3CC(CC(C3)C1)C2` [Compound 43, Adamantane-1-carboxylic acid [2-(3,4-dihydroxy-phenyl)-ethyl]-amide], for which the IC50 in assay [1] is 27 µM. Further, in assay [2], the “Recombinant SK (% inhibition)” value worked out at 0%.
For `O=C(NCc1cc(F)c(F)c(F)c1)C12CC3CC(C1)CC(c1ccc(Cl)cc1)(C3)C2` [Compound 22, 3-(4-Chloro-phenyl)-adamantane-1-carboxylic acid 3,4,5-trifluoro-benzylamide], the IC50 in assay [1] stood at 18 µM. Moreover, the “Recombinant SK (% inhibition)” value in assay [2] is 56%.
In the case of `CC(=O)Oc1ccc(NC(=O)C23CC4CC(C2)CC(c2ccc(Cl)cc2)(C4)C3)cc1` [Compound 7, Acetic acid 4-{[3-(4-chloro-phenyl)-adamantane-1-carbonyl]-amino}-phenyl ester], in assay [1], the IC50 is 3 µM. Besides, the “Recombinant SK (% inhibition)” value in assay [2] was found to be 100%.
Taken in the same sequence, the figures for `CN1CCC(NC(=O)C23CC4CC(CC(C4)C2)C3)CC1` [Compound 50, Adamantane-1-carboxylic acid (1-methyl-piperidin-4-yl)-amide] were 181 µM and 0%.
Consider `N#Cc1ccc(/C=C/C(=O)C23CC4CC(C2)CC(c2ccc(Cl)cc2)(C4)C3)cc1` [Compound 131, 4-{3-[3-(4-Chloro-phenyl)-adamantan-1-yl]-3-oxo-propenyl}-benzonitrile], for which the IC50 in assay [1] is 27 µM. For the same compound, the “Recombinant SK (% inhibition)” value in assay [2] was 41%.
For `O=C(NCc1ccc(Cl)c(C(F)(F)F)c1)C12CC3CC(C1)CC(c1ccc(Cl)cc1)(C3)C2` [Compound 26, 3-(4-Chloro-phenyl)-adamantane-1-carboxylic acid 4-chloro-3-trifluoromethyl-benzylamide], the IC50 in assay [1] was 19 µM. The “Recombinant SK (% inhibition)” value in assay [2] was determined as 36%.
For the compound `CC(NC(=O)C12CC3CC(C1)CC(c1ccc(Cl)cc1)(C3)C2)c1ccc(Cl)cc1` (stereo not shown) [Compound 28, 3-(4-Chloro-phenyl)-adamantane-1-carboxylic acid [1-(4-chloro-phenyl)-ethyl]-amide], the IC50 in assay [1] is 64 µM. The “Recombinant SK (% inhibition)” value in assay [2] came out at 6%.
For `O=C(NCc1ccc(OC(F)(F)F)cc1)C12CC3CC(C1)CC(c1ccc(Cl)cc1)(C3)C2` [Compound 32, 3-(4-Chloro-phenyl)-adamantane-1-carboxylic acid 4-trifluoromethoxy-benzylamide] the same measures were 24 µM and 17%.
`O=C(NCCc1cccc(Oc2ccccc2)c1)C12CC3CC(C1)CC(c1ccc(Cl)cc1)(C3)C2` [Compound 46, 3-(4-Chloro-phenyl)-adamantane-1-carboxylic acid [2-(3-phenoxy-phenyl)-ethyl]-amide]: the IC50 in assay [1] came to 91 µM. Besides, the “Recombinant SK (% inhibition)” value in assay [2] is 4%.
In the case of `O=C(NCc1ccc(F)c(F)c1)C12CC3CC(C1)CC(c1ccc(Cl)cc1)(C3)C2` [Compound 21, 3-(4-Chloro-phenyl)-adamantane-1-carboxylic acid 3,4-difluoro-benzylamide], the IC50 in assay [1] was found to be 27 µM. Besides, in assay [2], the “Recombinant SK (% inhibition)” value amounted to 65%.
For `O=C(NCc1ccc(Oc2ccccc2)cc1)C12CC3CC(C1)CC(c1ccc(Cl)cc1)(C3)C2` [Compound 34, 3-(4-Chloro-phenyl)-adamantane-1-carboxylic acid 4-phenoxy-benzylamide] the same measures were over 106 µM and 0%.
For `CC(NC1CCN(C)CC1)C12CC3CC(CC(C3)C1)C2` (stereo not shown) [Compound 104, (1-Adamantan-1-yl-ethyl)-(1-methyl-piperidin-4-yl)-amine] the same measures were 34 µM and 0%.
For `O=C(NCc1ccc(-c2ccccc2)cc1)C12CC3CC(C1)CC(c1ccc(Cl)cc1)(C3)C2` [Compound 49, 3-(4-Chloro-phenyl)-adamantane-1-carboxylic acid (biphenyl-4-ylmethyl)-amide] the same measures were 68 µM and 33%.
Consider `O=C(NCc1cc(F)cc(C(F)(F)F)c1)C12CC3CC(C1)CC(c1ccc(Cl)cc1)(C3)C2` [Compound 18, 3-(4-Chloro-phenyl)-adamantane-1-carboxylic acid 3-fluoro-5-trifluoromethyl-benzylamide], for which, in assay [1], the IC50 came out at 19 µM. Moreover, in assay [2], the “Recombinant SK (% inhibition)” value amounted to 0%.
For `O=C(NC1CC1)C12CC3CC(C1)CC(c1ccc(Cl)cc1)(C3)C2` [Compound 2, 3-(4-Chloro-phenyl)-adamantane-1-carboxylic acid cyclopropylamide], the IC50 in assay [1] is 20 µM. Moreover, the “Recombinant SK (% inhibition)” value in assay [2] came to 0%.
For `O=C(NCc1ccc(F)c(C(F)(F)F)c1)C12CC3CC(C1)CC(c1ccc(Cl)cc1)(C3)C2` [Compound 24, 3-(4-Chloro-phenyl)-adamantane-1-carboxylic acid 4-fluoro-3-trifluoromethyl-benzylamide] the same measures were 17 µM and 20%.
Taken in the same sequence, the figures for `O=C(Nc1ncnc2[nH]cnc12)C12CC3CC(C1)CC(c1ccc(Cl)cc1)(C3)C2` [Compound 73, 3-(4-Chloro-phenyl)-adamantane-1-carboxylic acid (9H-purin-6-yl)-amide] were 80 µM and 53%.
For `NCc1c(Cl)c(Cl)c(Cl)c(CNC(=O)C23CC4CC(C2)CC(c2ccc(Cl)cc2)(C4)C3)c1Cl` [Compound 27, 3-(4-Chloro-phenyl)-adamantane-1-carboxylic acid 3-aminomethyl-2,4,5,6-tetrachloro-benzylamide] the same measures were 8 µM and 50%.
`O=C(NCc1cc(F)cc(F)c1)C12CC3CC(C1)CC(c1ccc(Cl)cc1)(C3)C2` [Compound 20, 3-(4-Chloro-phenyl)-adamantane-1-carboxylic acid 3,5-difluoro-benzylamide]: the IC50 in assay [1] came out at 33 µM. For the same compound, the “Recombinant SK (% inhibition)” value in assay [2] was determined as 0%.
As for `CC(C)(C)NCCCNC(=O)C12CC3CC(C1)CC(c1ccc(Cl)cc1)(C3)C2` [Compound 53, 3-(4-Chloro-phenyl)-adamantane-1-carboxylic acid (3-tert-butylamino-propyl)-amide], the IC50 in assay [1] worked out at 11 µM. Further, the “Recombinant SK (% inhibition)” value in assay [2] is listed as 52%.
For the compound `CN1CCCC1CCNC(=O)C12CC3CC(CC(C3)C1)C2` (stereo not shown) [Compound 56, Adamantane-1-carboxylic acid [2-(1-methyl-pyrrolidin-2-yl)-ethyl]-amide], the IC50 in assay [1] was 10 µM. For the same compound, in assay [2], the “Recombinant SK (% inhibition)” value came to 33%.
Turning to `CN1CCCC1CCNCC12CC3CC(C1)CC(c1ccc(Cl)cc1)(C3)C2` (stereo not shown) [Compound 86, [3-(4-Chloro-phenyl)-adamantan-1-ylmethyl]-[2-(1-methyl-pyrrolidin-2-yl)-ethyl]-amine], the IC50 in assay [1] is 5 µM. Further, the “Recombinant SK (% inhibition)” value in assay [2] is 6%.
